Data as given in ChEMBL document CHEMBL2412974, “Dimeric and trimeric triazole based molecules as a new class of Hsp90 molecular chaperone inhibitors” (Eur J Med Chem, 2013).
Calls of active or inactive are those of the source. The rule behind the calls is not given here.

Tests used:
[1] = molecular target: T1, Heat shock protein HSP 90-beta (Homo sapiens, UniProt P08238); assay: Inhibition of human Hsp90 chaperone activity assessed as citrate synthase thermal-induced aggregation at 0.3 uM by fluorimetric analysis
T1 sequence (P08238 whole entry): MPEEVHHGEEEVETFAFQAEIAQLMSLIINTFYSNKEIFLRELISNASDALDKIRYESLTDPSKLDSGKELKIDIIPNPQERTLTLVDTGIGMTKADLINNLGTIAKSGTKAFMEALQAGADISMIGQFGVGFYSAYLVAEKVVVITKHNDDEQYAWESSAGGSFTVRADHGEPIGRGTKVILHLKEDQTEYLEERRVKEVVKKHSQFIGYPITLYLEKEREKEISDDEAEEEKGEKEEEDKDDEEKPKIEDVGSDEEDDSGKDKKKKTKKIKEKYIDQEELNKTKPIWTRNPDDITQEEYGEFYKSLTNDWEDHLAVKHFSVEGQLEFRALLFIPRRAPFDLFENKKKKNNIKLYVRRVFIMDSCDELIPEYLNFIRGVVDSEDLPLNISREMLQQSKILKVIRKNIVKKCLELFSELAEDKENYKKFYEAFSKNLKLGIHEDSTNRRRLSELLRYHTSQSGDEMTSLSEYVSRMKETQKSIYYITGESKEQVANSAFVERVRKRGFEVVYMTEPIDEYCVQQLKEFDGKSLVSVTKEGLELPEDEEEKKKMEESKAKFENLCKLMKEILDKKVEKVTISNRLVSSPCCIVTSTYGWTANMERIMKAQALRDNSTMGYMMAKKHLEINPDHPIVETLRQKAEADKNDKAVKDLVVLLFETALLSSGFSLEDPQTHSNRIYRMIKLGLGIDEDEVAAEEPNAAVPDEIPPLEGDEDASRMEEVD

[2] = molecular target: T1, Heat shock protein HSP 90-beta; assay: Inhibition of human Hsp90 ATPase activity assessed as inhibition of ATP hydrolysis after 60 mins by fluorimetric analysis
[3] = molecular target: T1, Heat shock protein HSP 90-beta; assay: Binding affinity to human Hsp90 by surface plasmon resonance analysis

| Kd ([3]; read-out: Kd) [µM] | Kd [3] | SMILES | further results |
| --- | --- | --- | --- |
|  | Not Active | O=C(c1ccccc1)c1ccc(Cn2cc(CCCCc3cn(Cc4ccc(C(=O)c5ccccc5)cc4)nn3)nn2)cc1 |  |
| 0.089 |  | O=C1c2ccccc2C(=O)N1CCCn1cc(CN(Cc2cn(CCCN3C(=O)c4ccccc4C3=O)nn2)Cc2cn(CCCN3C(=O)c4ccccc4C3=O)nn2)nn1 |  |
| 0.107 |  | O=C1c2ccccc2C(=O)c2cc(Cn3cc(CN(Cc4cn(Cc5ccc6c(c5)C(=O)c5ccccc5C6=O)nn4)Cc4cn(Cc5ccc6c(c5)C(=O)c5ccccc5C6=O)nn4)nn3)ccc21 |  |
| 0.055 |  | c1ccc2cc(Cn3cc(CN(Cc4cn(Cc5ccc6ccccc6c5)nn4)Cc4cn(Cc5ccc6ccccc6c5)nn4)nn3)ccc2c1 | inhibition [1]: Active; IC50 [2]: 16 µM; inhibition [2]: Dose-dependent effect |
|  | Not Active | O=C1c2ccccc2C(=O)c2cc(Cn3cc(-c4ccc(-c5cn(Cc6ccc7c(c6)C(=O)c6ccccc6C7=O)nn5)cc4)nn3)ccc21 |  |
|  | Not Active | c1ccc(-c2ccc(Cn3cc(-c4ccc(-c5cn(Cc6ccc(-c7ccccc7)cc6)nn5)cc4)nn3)cc2)cc1 |  |
|  | Not Active | c1ccc2c(Cn3cc(-c4ccc(-c5cn(Cc6cccc7ccccc67)nn5)cc4)nn3)cccc2c1 |  |
|  | Not Active | c1ccc2cc(Cn3cc(COCc4cn(Cc5ccc6ccccc6c5)nn4)nn3)ccc2c1 |  |
| 0.0036 |  | O=C(c1ccccc1)c1ccc(Cn2cc(COCc3cn(Cc4ccc(C(=O)c5ccccc5)cc4)nn3)nn2)cc1 | inhibition [1]: Active; IC50 [2]: 7 µM; inhibition [2]: Dose-dependent effect |

Further lines, the molecule ahead of its results:

| SMILES | Kd ([3]; read-out: Kd) [µM] | Kd [3] | further results |
| --- | --- | --- | --- |
| O=C1c2ccccc2C(=O)c2cc(Cn3cc(COCc4cn(Cc5ccc6c(c5)C(=O)c5ccccc5C6=O)nn4)nn3)ccc21 | 0.0028 |  | inhibition [1]: Active; IC50 [2]: 7 µM; inhibition [2]: Dose-dependent effect |
| c1ccc(-c2ccc(Cn3cc(COCc4cn(Cc5ccc(-c6ccccc6)cc5)nn4)nn3)cc2)cc1 | 0.237 |  |  |
| c1ccc2c(Cn3cc(COCc4cn(Cc5cccc6ccccc56)nn4)nn3)cccc2c1 | 0.0103 |  |  |
| O=C(c1ccccc1)c1ccc(Cn2cc(-c3ccc(-c4cn(Cc5ccc(C(=O)c6ccccc6)cc5)nn4)cc3)nn2)cc1 |  | Not Active |  |
| c1ccc2c(Cn3cc(CCCCc4cn(Cc5cccc6ccccc56)nn4)nn3)cccc2c1 | 0.191 |  |  |
| O=C1c2ccccc2C(=O)N1CCCn1cc(COCc2cn(CCCN3C(=O)c4ccccc4C3=O)nn2)nn1 | 0.0035 |  | inhibition [1]: Active; IC50 [2]: 7 µM; inhibition [2]: Dose-dependent effect |
| O=C1c2ccccc2C(=O)N1CCCn1cc(-c2ccc(-c3cn(CCCN4C(=O)c5ccccc5C4=O)nn3)cc2)nn1 |  | Not Active |  |
| c1ccc2cc(Cn3cc(-c4ccc(-c5cn(Cc6ccc7ccccc7c6)nn5)cc4)nn3)ccc2c1 |  | Not Active |  |
| O=C(c1ccccc1)c1ccc(Cn2cc(CN(Cc3cn(Cc4ccc(C(=O)c5ccccc5)cc4)nn3)Cc3cn(Cc4ccc(C(=O)c5ccccc5)cc4)nn3)nn2)cc1 | 0.151 |  |  |
| c1ccc2cc(Cn3cc(CCCCc4cn(Cc5ccc6ccccc6c5)nn4)nn3)ccc2c1 | 0.084 |  | inhibition [1]: Active; IC50 [2]: 52 µM; inhibition [2]: Dose-dependent effect |
| O=C1c2ccccc2C(=O)c2cc(Cn3cc(CCCCc4cn(Cc5ccc6c(c5)C(=O)c5ccccc5C6=O)nn4)nn3)ccc21 |  | Not Active |  |
| c1ccc(-c2ccc(Cn3cc(CN(Cc4cn(Cc5ccc(-c6ccccc6)cc5)nn4)Cc4cn(Cc5ccc(-c6ccccc6)cc5)nn4)nn3)cc2)cc1 | 0.072 |  |  |
| O=C1c2ccccc2C(=O)N1CCCn1cc(CCCCc2cn(CCCN3C(=O)c4ccccc4C3=O)nn2)nn1 |  | Not Active |  |
| c1ccc2c(Cn3cc(CN(Cc4cn(Cc5cccc6ccccc56)nn4)Cc4cn(Cc5cccc6ccccc56)nn4)nn3)cccc2c1 | 0.201 |  |  |
| c1ccc(-c2ccc(Cn3cc(CCCCc4cn(Cc5ccc(-c6ccccc6)cc5)nn4)nn3)cc2)cc1 |  | Not Active |  |
